The results in this text go back to patent US7964531B2, “3-phenoxy-4-pyridazinol derivatives and herbicidal composition containing the same” (Mitsui Chemicals Agro, Inc., priority 2001, dated 2011).

For orientation: melting point means the temperature of the solid-liquid transition. `N#CC1(c2ccccc2Oc2nnc(Cl)cc2O)CC1` [Compound No. 173, 1-{2-[(6-Chloro-4-hydroxy-3-pyridazinyl)oxy]phenyl}cyclopropanecarbonitrile]: the melting point lay in the range of 63 to 64 °C.
Regarding `Oc1cc(Cl)nnc1Oc1ccccc1C1(c2ccccc2)CC1` [Compound No. 184, 6-Chloro-3-[2-(1-phenylcyclopropyl)phenoxy]-4-pyridazinol], the melting point was 172 to 173 °C.
Turning to `COC1(c2ccccc2Oc2nnc(Cl)cc2O)CC1` [Compound No. 202, 6-Chloro-3-[2-(1-methoxycyclopropyl)phenoxy]-4-pyridazinol], the melting point was 157 to 165 °C.
The molecule `CC1CC1c1ccccc1Oc1nnc(Cl)cc1O` (stereo not shown) [Compound No. 217, 6-Chloro-3-[2-(2-methylcyclopropyl)phenoxy]-4-pyridazinol] displayed a melting point of 192 to 208 °C.
Turning to `CCOC1CC1c1ccccc1Oc1nnc(Cl)cc1O` (stereo not shown) [Compound No. 249, 6-Chloro-3-[2-(2-ethoxycyclopropyl)phenoxy]-4-pyridazinol], the melting point lay within 145 to 152 °C.
`Oc1cc(Cl)nnc1Oc1ccccc1C1CC1(F)F` (stereo not shown) [Compound No. 264, 6-Chloro-3-[2-(2,2-difluorocyclopropyl)phenoxy]-4-pyridazinol] showed a melting point of 215 to 216 °C.
The figure for `Oc1cc(Cl)nnc1Oc1ccccc1C1CC1(Cl)Cl` (stereo not shown) [Compound No. 265, 6-Chloro-3-[2-(2,2-dichlorocyclopropyl)phenoxy]-4-pyridazinol] is 158 to 163 °C.
In the case of `Oc1cc(Cl)nnc1Oc1ccccc1C1CC1(Br)Br` (stereo not shown) [Compound No. 266, 6-Chloro-3-[2-(2,2-dibromocyclopropyl)phenoxy]-4-pyridazinol], the melting point was 208 to 210 °C (dec.).
Under `CC1(C)CC1c1ccccc1Oc1nnc(Cl)cc1O` (stereo not shown) [Compound No. 267, 6-Chloro-3-[2-(2,2-dimethylcyclopropyl)phenoxy]-4-pyridazinol] stands 187 to 188 °C; under `Oc1cc(Cl)nnc1Oc1ccccc1C1CCC1` [Compound No. 284, 6-Chloro-3-(2-cyclobutylphenoxy)-4-pyridazinol], 188 to 189 °C.
`N#CC1(c2ccccc2Oc2nnc(Cl)cc2O)CCC1` [Compound No. 287, 1-{2-[(6-Chloro-4-hydroxy-3-pyridazinyl)oxy]phenyl}cyclobutanecarbonitrile] displayed a melting point of 213 to 215 °C.
Under `O=C(O)C1(c2ccccc2Oc2nnc(Cl)cc2O)CCC1` [Compound No. 288, 1-{2-[(6-Chloro-4-hydroxy-3-pyridazinyl)oxy]phenyl}cyclobutanecarboxylic acid] stands 173 to 175 °C.
`Oc1cc(Cl)nnc1Oc1ccccc1C1CCCC1` [Compound No. 292, 6-Chloro-3-(2-cyclopentylphenoxy)-4-pyridazinol] registered a melting point of 178 to 180 °C.
The figure for `Oc1cc(Cl)nnc1Oc1ccccc1C1CCCCC1` [Compound No. 293, 6-Chloro-3-(2-cyclohexylphenoxy)-4-pyridazinol] is 158 to 159 °C.
In turn, `C=C(C)c1ccccc1Oc1nnc(Cl)cc1O` [Compound No. 304, 6-Chloro-3-(2-isopropenylphenoxy)-4-pyridazinol] gave a melting point of 187 to 188 °C.
The molecule `CC=Cc1ccccc1Oc1nnc(Cl)cc1O` [Compound No. 305, 6-Chloro-3-[2-(1-propenyl)phenoxy}-4-pyridazinol] came in with a melting point of 204 to 206 °C.
The figure for `N#C/C=C/c1ccccc1Oc1nnc(Cl)cc1O` [Compound No. 306, (2E)-3-{2-[(6-Chloro-4-hydroxy-3-pyridazinyl)oxy]phenyl}acrylonitrile] is 190 to 192 °C; for `C=CCc1ccccc1Oc1nnc(Cl)cc1O` [Compound No. 307, 3-(2-Allylphenoxy)-6-chloro-4-pyridazinol] it is 200 to 202.5 °C.
`C#Cc1ccccc1Oc1nnc(Cl)cc1O` [Compound No. 308, 6-Chloro-3-(2-ethynylphenoxy)-4-pyridazinol] came in with a melting point of 189 to 191 °C.
Under `CC#Cc1ccccc1Oc1nnc(Cl)cc1O` [Compound No. 309, 6-Chloro-3-[2-(1-propynyl)phenoxy]-4-pyridazinol] stands 182 to 184 °C; under `Oc1cc(Cl)nnc1Oc1ccccc1CC1CC1` [Compound No. 311, 6-Chloro-3-[2-(cyclopropylmethyl)phenoxy]-4-pyridazinol], 165 to 168 °C; under `Oc1cc(Cl)nnc1Oc1ccccc1Cc1ccccc1` [Compound No. 315, 3-(2-Benzylphenoxy)-6-chloro-4-pyridazinol], 185 to 187 °C.
Turning to `COCc1ccccc1Oc1nnc(Cl)cc1O` [Compound No. 324, 6-Chloro-3-[2-(methoxymethyl)phenoxy]-4-pyridazinol], the melting point was in the range of 211 to 212 °C.
`CCOCc1ccccc1Oc1nnc(Cl)cc1O` [Compound No. 325, 6-Chloro-3-[2-(ethoxymethyl)phenoxy]-4-pyridazinol] came in with a melting point of 173 to 174 °C.
The figure for `Oc1cc(Cl)nnc1Oc1ccccc1C1OCCO1` [Compound No. 329, 6-Chloro-3-[2-(1,3-dioxolan-2-yl)phenoxy]-4-pyridazinol] is 143 to 145 °C; for `CON=C(C)c1ccccc1Oc1nnc(Cl)cc1O` [Compound No. 334, 1-{2-[(6-Chloro-4-hydroxy-3-pyridazinyl)oxy]phenyl}ethanone O-methyloxime] it is 165 to 167 °C; for `COC(=O)c1ccccc1Oc1nnc(Cl)cc1O` [Compound No. 339, Methyl 2-[(6-chloro-4-hydroxy-3-pyridazinyl)oxy]benzoate] it is 188 to 191 °C.
Molecule `Oc1cc(Cl)nnc1Oc1ccccc1-c1ccccc1` [Compound No. 344, 3-([1,1′-Biphenyl]-2-yloxy)-6-chloro-4-pyridazinol] returned a melting point of 98 to 100 °C.
The figure for `Oc1cc(Cl)nnc1Oc1ccccc1-c1ccsc1` [Compound No. 361, 6-Chloro-3-[2-(3-thienyl)phenoxy]-4-pyridazinol] is 207 to 209 °C.
Under `CN(C)S(=O)(=O)n1ccc(-c2ccccc2Oc2nnc(Cl)cc2O)n1` [Compound No. 368, 3-{2-[(6-Chloro-4-hydroxy-3-pyridazinyl)oxy]phenyl}N,N-dimethyl-1H-pyrazole-1-sulfonamide] stands 210 to 212 °C; under `CN(C)S(=O)(=O)n1nccc1-c1ccccc1Oc1nnc(Cl)cc1O` [Compound No. 369, 5-{2-[(6-Chloro-4-hydroxy-3-pyridazinyl)oxy]phenyl}N,N-dimethyl-1H-pyrazole-1-sulfonamide], 151 to 152 °C.
For the molecule `Oc1cc(Cl)nnc1Oc1ccccc1-c1nc2ccccc2o1` [Compound No. 375, 3-[2-(1,3-Benzoxazol-2-yl)phenoxy]-6-chloro-4-pyridazinol], the melting point lay in the range of 165 to 167 °C.
In the case of `Oc1cc(Cl)nnc1Oc1ccccc1-c1nc2ccccc2s1` [Compound No. 376, 3-[2-(1,3-Benzothiazol-2-yl)phenoxy]-6-chloro-4-pyridazinol], the melting point lay in the range of 215 to 217 °C.
Consider `Nc1ccccc1OC1(Cl)NN=CC=C1O` (stereo not shown) [Compound No. 377, 3-(2-Aminophenoxy)-3-chloro-4-pyridazinol], for which the melting point was in the range of 249 to 250 °C.
Take `O=[N+]([O-])c1ccccc1Oc1nnc(Cl)cc1O` [Compound No. 383, 6-Chloro-3-(2-nitrophenoxy)-4-pyridazinol]: the melting point lay in the range of 99 to 100 °C.
Molecule `Oc1ccccc1Oc1nnc(Cl)cc1O` [Compound No. 384, 6-Chloro-3-(2-hydroxyphenoxy)-4-pyridazinol] came in with a melting point of 216 to 219 °C.
The figure for `COc1ccccc1Oc1nnc(Cl)cc1O` [Compound No. 385, 6-Chloro-3-(2-methoxyphenoxy)-4-pyridazinol] is 191 to 194 °C; for `CCOc1ccccc1Oc1nnc(Cl)cc1O` [Compound No. 386, 6-Chloro-3-(2-ethoxyphenoxy)-4-pyridazinol] it is 155 to 175 °C; for `CC(C)Oc1ccccc1Oc1nnc(Cl)cc1O` [Compound No. 387, 6-Chloro-3-(2-isopropoxyphenoxy)-4-pyridazinol] it is 178 to 179 °C.
`Oc1cc(Cl)nnc1Oc1ccccc1OC(F)F` [Compound No. 390, 6-Chloro-3-[2-(difluoromethoxy)phenoxy]-4-pyridazinol] showed a melting point of 210 to 212 °C.
Molecule `CSc1ccccc1Oc1nnc(Cl)cc1O` [Compound No. 401, 6-Chloro-3-[2-(methylsulfanyl)phenoxy]-4-pyridazinol] gave a melting point of 174 to 175 °C.
The molecule `CC(C)Sc1ccccc1Oc1nnc(Cl)cc1O` [Compound No. 403, 6-Chloro-3-[2-(isopropylsulfanyl)phenoxy]-4-pyridazinol] had a melting point of 176 to 177 °C.
`Oc1cc(Cl)nnc1Oc1cccc(I)c1` [Compound No. 412, 6-Chloro-3-(3-iodophenoxy)-4-pyridazinol] registered a melting point of 202 to 203 °C.
`Cc1cccc(Oc2nnc(Cl)cc2O)c1` [Compound No. 413, 6-Chloro-3-(3-methylphenoxy)-4-pyridazinol] registered a melting point of 205 to 208 °C.
The figure for `CC(C)c1cccc(Oc2nnc(Cl)cc2O)c1` [Compound No. 415, 6-Chloro-3-(3-isopropylphenoxy)-4-pyridazinol] is 176 to 177 °C; for `CC(C)(C)c1cccc(Oc2nnc(Cl)cc2O)c1` [Compound No. 416, 3-(3-tert-Butylphenoxy)-6-chloro-4-pyridazinol] it is 203 to 207 °C; for `Oc1cc(Cl)nnc1Oc1cccc(C2CC2)c1` [Compound No. 417, 6-Chloro-3-(3-cyclopropylphenoxy)-4-pyridazinol] it is 179 to 181 °C.
`Oc1cc(Cl)nnc1Oc1cccc(C(F)(F)F)c1` [Compound No. 418, 6-Chloro-3-[3-(trifluoromethyl)phenoxy]-4-pyridazinol]: the melting point lay within 213 to 216 °C.
`Oc1cc(Cl)nnc1Oc1cccc(-c2ccco2)c1` [Compound No. 419, 6-Chloro-3-[3-(2-furyl)phenoxy]-4-pyridazinol]: the melting point was in the range of 200 to 202 °C.
